Tests used:
Format in all cases: in vivo
Plutella xylostella = assay: Diamond back moth (Plutella xylostella) stomach poison leaf dip test; conditions: for activity in [%]: 10 ppm, scale 0% no biological activity to 100% total control
Experimental: The test solution is prepared at the day of use.
Leaves of Chinese cabbage are dipped in test solution and air-dried. Treated leaves are placed in petri dished lined with moist filter paper. Mortality is recorded 24, 72, and 120 hours after treatment.
The biological tests were conducted as described above.

Myzus persicae = assay: Green peach aphid (Myzus persicae) artificial diet test; conditions: 72 h, 2500 ppm, adult aphids on treated artificial diet, 3 days, read-out: mortality in comparison with untreated controls
Excerpt: For evaluating control of green peach aphid (Myzus persicae) the test unit consisted of 96-well-microtiter plates containing liquid artificial diet under an artificial membrane.
The compounds were formulated using a solution containing 75% v/v water and 25% v/v DMSO. Different concentrations of formulated compounds were pipetted into the aphid diet, using a custom built pipetter, at two replications.
After application, 5-8 adult aphids were placed on the artificial membrane inside the microtiter plate wells. The aphids were then allowed to suck on the treated aphid diet and incubated at about 23±1° C. and about 50±5% relative humidity for 3 days. Aphid mortality and fecundity was then visually assessed.

Megoura viciae = assay: Vetch aphid (Megoura viciae) leaf disk test; conditions: foliar, 120 h, 2500 ppm, adult aphids on sprayed broad bean leaf disks, 5 days, read-out: mortality in comparison with untreated controls
Experimental: For evaluating control of vetch aphid (Megoura viciae) through contact or systemic means the test unit consisted of 24-well-microtiter plates containing broad bean leaf disks.
The compounds were formulated using a solution containing 75% v/v water and 25% v/v DMSO. Different concentrations of formulated compounds were sprayed onto the leaf disks at 2.5 μl, using a custom built micro atomizer, at two replications.
After application, the leaf disks were air-dried and 5-8 adult aphids placed on the leaf disks inside the microtiter plate wells. The aphids were then allowed to suck on the treated leaf disks and incubated at about 23±1° C. and about 50±5% relative humidity for 5 days. Aphid mortality and fecundity was then visually assessed.

Ceratitis capitata = assay: Mediterranean fruitfly (Ceratitis capitata) diet/egg test; conditions: 120 h, 2500 ppm, egg and larval mortality, 5 days, read-out: mortality in comparison with untreated controls
Experimental: For evaluating control of Mediterranean fruitfly (Ceratitis capitata) the test unit consisted of microtiter plates containing an insect diet and 50-80 C. capitata eggs.
The compounds were formulated using a solution containing 75% v/v water and 25% v/v DMSO. Different concentrations of formulated compounds were sprayed onto the insect diet at 5 nl, using a custom built micro atomizer, at two replications.
(§1) After application, microtiter plates were incubated at about 28±1° C. and about 80±5% relative humidity for 5 days. Egg and larval mortality was then visually assessed.

Anthonomus grandis = assay: Boll weevil (Anthonomus grandis) diet/egg test; conditions: 120 h, 2500 ppm, egg and larval mortality, 5 days, read-out: mortality in comparison with untreated controls
Experimental: For evaluating control of boll weevil (Anthonomus grandis) the test unit consisted of 24-well-microtiter plates containing an insect diet and 20-30 A. grandis eggs.
The compounds were formulated using a solution containing 75% v/v water and 25% v/v DMSO. Different concentrations of formulated compounds were sprayed onto the insect diet at 20 μl, using a custom built micro atomizer, at two replications.
After application, microtiter plates were incubated at about 23±1° C. and about 50±5% relative humidity for 5 days. Egg and larval mortality was then visually assessed.

Heliothis virescens = assay: Tobacco budworm (Heliothis virescens) diet/egg test
Experimental: For evaluating control of tobacco budworm (Heliothis virescens) the test unit consisted of 96-well-microtiter plates containing an insect diet and 15-25 H. virescens eggs.
The compounds were formulated using a solution containing 75% v/v water and 25% v/v DMSO. Different concentrations of formulated compounds were sprayed onto the insect diet at 10 μl, using a custom built micro atomizer, at two replications.
as §1
The biological activity shown tables under CB.1 and CB.2 was evaluated on scale range from 0% as showing no biological activity to 100% as having total control. The biological tests were conducted as described above.

Aedes aegypti = Aedes aegypti neonate larvae motility assay; conditions: larval motility, dose response
Experimental: Compounds formulated in 100% DMSO are tested in microtiter plates containing 180 ul 1× Luria Broth media and 10 neonate A. aegypti larvae. The efficacy of a compound is determined based on the motility of the larvae as compared to average motility of control wells containing DMSO only. A dose response assay is conducted with compounds with >80% reduction in motility in the primary assay to determine an EC50 value. Selected compounds are advanced to insecticide secondary assays.

| SMILES | activity in [%] (Plutella xylostella) | mortality at 2500 ppm (Myzus persicae) | mortality at 2500 ppm (Megoura viciae) | mortality at 2500 ppm (Ceratitis capitata) | mortality at 2500 ppm (Anthonomus grandis) | activity in [%] (Heliothis virescens; 800 ppm, scale 0% no biological activity to 100% total control) | mortality at 2500 ppm (Heliothis virescens; Heliothis virescens, 120 h, 2500 ppm, egg and larval mortality, 5 days, read-out: mortality in comparison with untreated controls) | mortality at 500 ppm (Plutella xylostella; Plutella xylostella, foliar, 500 ppm, dipped Chinese cabbage leaves, stomach poison, read-out: mortality in comparison with untreated controls) | EC50 (Aedes aegypti) |
| --- | --- | --- | --- | --- | --- | --- | --- | --- | --- |
| CC(C#N)(CCC(F)(F)F)S(=O)(=O)CCC(F)(F)C(F)(F)F (stereo not shown) [CE. 2, reference compound] | 0% |  |  |  |  |  |  |  |  |
| N#CC(CCSC(F)(F)F)S(=O)(=O)CCC(F)(F)C(F)(F)F (stereo not shown) [II-1, 2-(3,3,4,4,4-Pentafluoro-butane-1-sulfonyl)-4-trifluoromethylsulfanyl-butyronitrile] |  | > 90% | > 90% | > 90% | > 90% | 100% | > 90% | > 90% | < 5 µg/mL |
| CC(C#N)(CCSC(F)(F)F)S(=O)(=O)CCC(F)(F)C(F)(F)F (stereo not shown) [II-2, 2-Methyl-2-(3,3,4,4,4-pentafluoro-butane-1-sulfonyl)-4-trifluoromethyl-sulfanyl-butyronitrile] | 100% |  |  |  |  |  |  |  |  |
